Assay results taken from ChEMBL document CHEMBL5604064, “ASAP - DENV-1 NS2B-NS3 protease fluorescence dose response” (2024).
Where “and” joins values, the source holds several entries; their conditions need not be identical. Equal entries are not always repeated.

Target: T1, NS3 protease (dengue virus type 1, UniProt A0A0K0TQ28)
T1 sequence (A0A0K0TQ28 whole entry): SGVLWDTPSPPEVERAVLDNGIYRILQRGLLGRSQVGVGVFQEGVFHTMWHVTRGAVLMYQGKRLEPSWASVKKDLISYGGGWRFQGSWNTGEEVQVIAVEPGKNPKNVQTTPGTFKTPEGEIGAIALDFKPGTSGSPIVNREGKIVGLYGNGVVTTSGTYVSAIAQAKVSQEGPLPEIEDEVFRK
Assay: Functional biochemical assay to identify treatments for viral infectious disease that targets Dengue virus type 1 NS2B-NS3 protease. Utilizing a direct enzyme activity measurement method, reading the fluorescence intensity is used to characterize the relative potency of inhibitors as IC50.
Set-up: species or system Nauru/West Pac/1974

SMILES: O=C(NCC(F)F)[C@H](Nc1ccc2c(c1)CNC2)c1cc(F)cc2[nH]ncc12
- IC50: > 99.5 µM

SMILES: O=C(Nc1cc(Cl)cc([C@H]2CN(Cc3ccccc3)C[C@@H]2c2cccc(-c3nn[nH]n3)c2)c1)OCc1ccccc1
- IC50: 6.63 µM

SMILES: O=C1Cc2cc(C(=O)Nc3ccc4c(c3)CNC4)ccc2N1
- IC50: 5.26 µM and 4.47 µM

SMILES: Cc1cccc(-c2nc3c(C(=O)Nc4ccc5c(c4)CNC5)cc(Cl)cc3[nH]2)c1O
- IC50: 4.26 µM

SMILES: C=CC[C@H]1NCc2cc(NC(=O)c3cccc4c3CC(=O)N4)ccc21
- IC50: > 99.5 µM

SMILES: Cn1c(=O)[nH]c2c(C(=O)Nc3ccc4c(c3)CNC4)cc(Br)cc21
- IC50: > 99.5 µM

SMILES: O=C(Nc1ccc2c(c1)CNC2)c1cccc2[nH]c(C(F)(F)F)cc12
- IC50: > 99.5 µM
